Our source for the EC50 values is US20120128630A1, “1-(6 MEMBERS AZO-HETEROCYCLIC)-PYRROLIN-2-ONE COMPOUNDS AS INHIBITORS OF HEPATITIS C NS5B POLYMERASE, THE PHARAMACEUTICAL COMPOSITION THEREOF AND THEIR THERAPEUTIC USE” (priority 2009, published 2012).

For the first experiment, the target named is T1, HCV NS5B genotype 1b (Hepatitis C virus genotype 1b, UniProt Q9WMX2).
T1 construct: The protein was expressed with a 21 amino acid C-terminal deletion to remove transmembrane domain; expressed in transfected cells; host or cells: Huh-7
Kind of experiment: 3D-SCREEN assay (NS5B 3D-Screen platform, luciferase reporter gene). In kind it is cell-based. The conditions noted are these: EC50_3DS_NS5B, Table 1, 3D-SCREEN assay results; Huh-7 cells, 24 hours with compound, firefly luciferase reporter. The text has this: cDNA encoding HCV NS5B genotype 1b, was cloned in frame with Gal4-DNA Binding Domain. The protein was expressed with a 21 amino acid C-terminal deletion to remove transmembrane domain. Expression of NS5BΔ21/Gal4 DBD fusion protein was under control of SV40 early promoter. 3D-Sensor peptide was cloned in frame with VP16 activation domain. Expression of 3D-Sensor/VP16 AD fusion protein was under control of CMV promoter. Expression of the firefly luciferase reporter gene was inducible by the [Target protein/conformation sensitive peptide/VP16AD] complex.
It is a single-target, cell based assay. Briefly, expression of a reporter gene depends on the interaction of a short peptide, thereafter named 3D-Sensor, and native conformation of the target protein. Whenever the conformation of the target protein is modified, interaction between 3D-sensor and target protein is disrupted and reporter gene is not expressed anymore. Conformation modifiers are identified by loss of expression of reporter gene. NS5B 3D-Screen platform was generated in Huh-7 cell lines by transient transfection of three expression vectors encoding respectively
(i) HCV NS5BΔ21/Gal4-DBD fusion protein
(ii) the 3D-sensor peptide I4/VP16 fusion protein
(iii) the firefly luciferase reporter gene
Huh-7 cells were dissociated the day before transfection and seeded in T175 flasks at a density of 10^7 cells in 30 ml culture medium. Equimolar ratios of vectors were transfected in cell according to optimized jetPEI transfection protocol (PolyPlus Transfection, Illkirch, France) and 10 μg total DNA/10^6 cells. Transfection was performed for 2 hours at 37° C. and 5% CO2 in a humidified atmosphere. After two hours cells were dissociated and seeded in 96 wells plates at a density of 25,000 cells per well and 90 μl culture medium. 10 μl of compounds to be tested were added 2 hours after seeding. Final concentration of DMSO was 1%. Cells were incubated in the presence of compounds for 24 hours after which expression of firefly luciferase reporter gene was quantified. Briefly, culture medium was removed and cells were lysed by addition of 100 μl of lysis buffer containing 125 mM Tris Phosphate ph 7.8, 10 mM EDTA, 5 mM DTT, 50% glycerol and 5% Triton. Plates were vortexed 10 min at 1300 rpm. Cell lysat was transferred in OpaqueWhite Assay 96 well Flat Bottom plates. 100 μl of luciferin solution 1× were added to each well. Luciferin solution contained 40 mM Tris Phosphate ph 7.8, 0.2 mM EDTA, 67 mM DTT, 2.14 mM MgCl2, 5.4 mM MgSO4, 4.7×10^−4 M luciferin, 5.3×10^−4 M ATP and 2.7×10^−4 M Acetyl co enzyme A. Luminescence was immediately measured with Berthold Microlumat Plus LB 96V luminometer with an integration of 0.5 sec. Inhibition was calculated using the formula: % inhibition=(1−(read/average max))*100. Average max=signal in absence of compound
With `CON=C(C1=C(O)C(=O)N(c2ccc(C)nn2)C1c1ccc(C(C)C)cc1)c1ccc(C)cc1` (mixture of isomers) [Example 53, 3-hydroxy-5-(4-isopropyl-phenyl)-4-(methoxyimino-p-tolyl-methyl)-1-(6-methyl-pyridazin-3-yl)-1,5-dihydro-pyrrol-2-one], the EC50 came out at 5 µM. Same read-out and setting: next, `Cc1ccc(C(=O)C2=C(O)C(=O)N(c3ccc(C#N)cn3)C2c2ccc(C(C)C)cc2)cc1` (stereo not drawn) [Example 7, 6-[3-hydroxy-5-(4-isopropyl-phenyl)-4-(4-methyl-benzoyl)-2-oxo-2,5-dihydro-pyrrol-1-yl]-nicotinonitrile]: 9 µM; `Cc1ccc(C(=O)C2=C(O)C(=O)N(c3cccnn3)C2c2ccc(C(C)C)cc2)cc1` (stereo not drawn) [Example 9, 3-hydroxy-5-(4-isopropyl-phenyl)-4-(4-methyl-benzoyl)-1-pyridazin-3-yl-1,5-dihydro-pyrrol-2-one]: 7 µM. On the same count and under the same terms, next, `COc1ccc(C(=O)C2=C(O)C(=O)N(c3ccc(C)nn3)C2c2ccc(C(C)(C)C)cc2)cc1` (stereo not drawn) [Example 10, 5-(4-tert-butyl-phenyl)-3-hydroxy-4-(4-methoxy-benzoyl)-1-(6-methyl-pyridazin-3-yl)-1,5-dihydro-pyrrol-2-one]: 3 µM.

As to `Cc1ccc(C(=O)C2=C(O)C(=O)N(c3ccc(C)nn3)C2c2cccc(C(C)C)c2)cc1` (stereo not drawn) [Example 29, 3-hydroxy-5-(3-isopropyl-phenyl)-4-(4-methyl-benzoyl)-1-(6-methyl-pyridazin-3-yl)-1,5-dihydro-pyrrol-2-one], the EC50 came to 6 µM. The same measure, in the same setting: next, `Cc1ccc(N2C(=O)C(O)=C(C(=O)c3ccc(N(C)C)cc3)C2c2ccc(C(C)C)cc2)nn1` (stereo not drawn) [Example 35, 4-(4-dimethylamino-benzoyl)-3-hydroxy-5-(4-isopropyl-phenyl)-1-(6-methyl-pyridazin-3-yl)-1,5-dihydro-pyrrol-2-one]: 3 µM; `Cc1ccc(C(=O)C2=C(O)C(=O)N(c3ccc(C)nn3)C2c2ccc(-c3ccccc3)cc2)cc1` (stereo not drawn) [Example 42, 5-biphenyl-4-yl-3-hydroxy-4-(4-methyl-benzoyl)-1-(6-methyl-pyridazin-3-yl)-1,5-dihydro-pyrrol-2-one]: 4 µM; `Cc1ccc(N2C(=O)C(O)=C(C(=O)c3ccc(C(C)C)cc3)C2c2ccc(C(C)C)cc2)nc1` (stereo not drawn) [Example 44, 3-hydroxy-4-(4-isopropyl-benzoyl)-5-(4-isopropyl-phenyl)-1-(5-methyl-pyridin-2-yl)-1,5-dihydro-pyrrol-2-one]: 2 µM. For the compound `Cc1ccc(N2C(=O)C(O)=C(C(=O)c3ccc(C(C)C)cc3)C2c2ccc(-c3ccccc3)cc2)nn1` (stereo not drawn) [Example 45, 5-biphenyl-4-yl-3-hydroxy-4-(4-isopropyl-benzoyl)-1-(6-methyl-pyridazin-3-yl)-1,5-dihydro-pyrrol-2-one], the EC50 was 4 µM. On to `Cc1ccc(N2C(=O)C(O)=C(C(=O)c3ccc(N(C)C)cc3)C2c2ccc(OC(F)(F)F)cc2)nn1` (stereo not drawn) [Example 49, 4-(4-dimethylamino-benzoyl)-3-hydroxy-1-(6-methyl-pyridazin-3-yl)-5-(4-trifluoromethoxy-phenyl)-1,5-dihydro-pyrrol-2-one], for which the EC50 was 1 µM.

The experiment is the same for the next values; noted with them: EC50_3DS_NS5B, Table 2, titled Replicon assay results.
The compound `Cc1ccc(N2C(=O)C(O)=C(C(=O)c3ccc(C(F)(F)F)cc3)C2c2ccc(C(F)(F)F)cc2)nn1` (stereo not drawn) [Example 95, 3-hydroxy-1-(6-methyl-pyridazin-3-yl)-4-(4-trifluoromethyl-benzoyl)-5-(4-trifluoromethyl-phenyl)-1,5-dihydro-pyrrol-2-one] came in with an EC50 of less than 10 µM.

In turn, `COc1ccc(C(=O)C2=C(O)C(=O)N(c3ccc(C)nn3)C2c2ccc(OC(C)C)cc2)cc1` (stereo not drawn) [Example 100, 3-hydroxy-5-(4-isopropoxy-phenyl)-4-(4-methoxy-benzoyl)-1-(6-methyl-pyridazin-3-yl)-1,5-dihydro-pyrrol-2-one] returned an EC50 of less than 10 µM.

In turn, `Cc1ccc(N2C(=O)C(O)=C(C(=O)c3ccc(OC(C)C)cc3)C2c2ccc(OC(C)C)cc2)nn1` (stereo not drawn) [Example 109, 3-hydroxy-4-(4-isopropoxy-benzoyl)-5-(4-isopropoxy-phenyl)-1-(6-methyl-pyridazin-3-yl)-1,5-dihydro-pyrrol-2-one] had an EC50 of less than 10 µM. For the compound `Cc1ccc(N2C(=O)C(O)=C(C(=O)c3ccc(C(C)C)cc3)C2c2ccc(CC(C)C)cc2)nn1` (stereo not drawn) [Example 136, 3-hydroxy-5-(4-isobutyl-phenyl)-4-(4-isopropyl-benzoyl)-1-(6-methyl-pyridazin-3-yl)-1,5-dihydro-pyrrol-2-one], the EC50 was less than 10 µM.

`Cc1ccc(N2C(=O)C(O)=C(C(=O)c3ccc(C(C)C)cc3)C2c2ccc(Br)cc2)nn1` (stereo not drawn) [Example 172, 5-(4-bromo-phenyl)-3-hydroxy-4-(4-isopropyl-benzoyl)-1-(6-methyl-pyridazin-3-yl)-1,5-dihydro-pyrrol-2-one] showed an EC50 of less than 1 µM. Same read-out and setting: next, `Cc1ccc(N2C(=O)C(O)=C(C(=O)c3ccc(C(C)C)cc3)C2c2ccc(SC(C)C)cc2)nn1` (stereo not drawn) [Example 173, 3-hydroxy-4-(4-isopropyl-benzoyl)-5-(4-isopropylsulfanyl-phenyl)-1-(6-methyl-pyridazin-3-yl)-1,5-dihydro-pyrrol-2-one]: less than 1 µM. Compound `Cc1ccc(N2C(=O)C(O)=C(C(=O)c3ccc(C#N)cc3)C2c2ccc(OC(F)(F)F)cc2)nn1` (stereo not drawn) [Example 176, 4-[4-hydroxy-1-(6-methyl-pyridazin-3-yl)-5-oxo-2-(4-trifluoromethoxy-phenyl)-2,5-dihydro-1H-pyrrole-3-carbonyl]-benzonitrile] showed an EC50 of less than 10 µM.

In the case of `Cc1ccc(N2C(=O)C(O)=C(C(=O)c3ccc(N4CCCC4)cc3)C2c2ccc(OC(C)(F)F)cc2)nn1` (stereo not drawn) [Example 183, 5-[4-(1,1-difluoro-ethoxy)-phenyl]-3-hydroxy-1-(6-methyl-pyridazin-3-yl)-4-(4-pyrrolidin-1-yl-benzoyl)-1,5-dihydro-pyrrol-2-one], the EC50 was less than 10 µM. On to `Cc1ccc(N2C(=O)C(O)=C(C(=O)c3ccc(N4CCCC4)cc3)C2c2ccc(OC(F)(F)F)cc2)nn1` (stereo not drawn) [Example 184, 3-hydroxy-1-(6-methyl-pyridazin-3-yl)-4-(4-pyrrolidin-1-yl-benzoyl)-5-(4-trifluoromethoxy-phenyl)-1,5-dihydro-pyrrol-2-one], for which the EC50 is less than 10 µM. Same read-out and setting: then `Cc1ccc(N2C(=O)C(O)=C(C(=O)c3ccc(C(C)C)cc3)C2c2ccc(Oc3cc(C)on3)cc2)nn1` (stereo not drawn) [Example 185, 3-hydroxy-4-(4-isopropyl-benzoyl)-5-[4-(5-methyl-isoxazol-3-yloxy)-phenyl]-1-(6-methyl-pyridazin-3-yl)-1,5-dihydro-pyrrol-2-one], with less than 10 µM; and `Cc1ccc(N2C(=O)C(OC(=O)C(C)C)=C(C(=O)c3ccc(C(C)C)cc3)C2c2ccc(OC(F)(F)F)cc2)nn1` (stereo not drawn) [Example 186, Isobutyric acid 4-(4-isopropyl-benzoyl)-1-(6-methyl-pyridazin-3-yl)-2-oxo-5-(4-trifluoromethoxy-phenyl)-2,5-dihydro-1H-pyrrol-3-yl ester], with less than 1 µM. For the compound `Cc1ccc(N2C(=O)C(O)=C(C(=O)c3ccc(C(C)C)cc3)C2c2ccc(C(C)(F)F)nc2)nn1` (stereo not drawn) [Example 187, 5-[6-(1,1-difluoro-ethyl)-pyridin-3-yl]-3-hydroxy-4-(4-isopropyl-benzoyl)-1-(6-methyl-pyridazin-3-yl)-1,5-dihydro-pyrrol-2-one], the EC50 is less than 1 µM.

The same experiment, now with this note: Table 2, titled Replicon assay results; read-out: EC50_3DS_NS5B.
As for “5-[4-(1,1-difluoro-ethoxy)-phenyl]-3-hydroxy-4-(4-isopropyl-benzoyl)-1-(6-methyl-pyridazin-3-yl)-1,5-dihydro-pyrrol-2-one [Example 174]”, the EC50 was less than 10 µM.

Staying with this experiment, now noted: read-out: EC50_3DS_NS5B; Table 2, titled Replicon assay results.
`Cc1ccc(N2C(=O)C(O)=C(C(=O)c3ccc(OC(F)(F)F)cc3)C2c2ccc(C(C)C)cc2)cn1` (stereo not drawn) [Example 97, 5-[3-hydroxy-5-(4-isopropyl-phenyl)-2-oxo-4-(4-trifluoromethoxy-benzoyl)-2,5-dihydro-pyrrol-1-yl]-2-methyl-pyridinium; chloride]: the EC50 was less than 10 µM.
